Assay results published in ChEMBL document CHEMBL6114946, “Development and characterization of pyridyl carboxamides as potent and highly selective Nav1.8 inhibitors” (Bioorg Med Chem Lett, 2025).
In brackets after ≈: the same amount, converted by molar mass. Activity calls are given as the source filed them. No cut-off for these calls is given here.

Assays:
[1] = Oral bioavailability in rat at 10 mg/kg; format: ADME, organism-based; details: in vivo
[2] = Clearance in dog at 1 mg/kg; format: ADME, organism-based, Canis lupus familiaris; details: in vivo
[3] = Volume of distribution at steady state in rat at 1 mg/kg, iv; format: ADME, organism-based; details: in vivo, read-out: Vdss
[4] = Kinetic solubility of the compound in pH 7.4 phosphate buffered saline measured after 2 hrs by LC/MS analysis; format: physicochemical; details: read-out: Kinetic_solubility
[5] = Oral bioavailability in dog at 10 mg/kg; format: ADME, organism-based, Canis lupus familiaris; details: in vivo
Cytochrome P450 3A4 = Cytochrome P450 3A4 (Homo sapiens, UniProt P08684); assay: Inhibition of CYP3A4 (unknown origin); format: ADME
Sequence of Cytochrome P450 3A4 (P08684 whole entry): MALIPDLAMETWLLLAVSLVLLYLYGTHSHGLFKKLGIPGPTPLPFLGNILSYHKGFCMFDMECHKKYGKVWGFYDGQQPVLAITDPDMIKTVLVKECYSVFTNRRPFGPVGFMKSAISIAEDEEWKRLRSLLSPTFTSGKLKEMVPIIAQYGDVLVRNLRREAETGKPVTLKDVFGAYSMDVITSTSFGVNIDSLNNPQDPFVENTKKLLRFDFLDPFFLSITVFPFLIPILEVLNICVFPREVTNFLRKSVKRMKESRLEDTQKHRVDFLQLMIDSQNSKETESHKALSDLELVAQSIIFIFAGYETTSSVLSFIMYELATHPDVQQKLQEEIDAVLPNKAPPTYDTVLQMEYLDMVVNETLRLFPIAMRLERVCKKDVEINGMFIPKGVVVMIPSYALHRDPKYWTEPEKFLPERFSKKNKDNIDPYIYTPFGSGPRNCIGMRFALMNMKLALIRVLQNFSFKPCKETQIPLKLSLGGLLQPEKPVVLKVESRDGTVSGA

[6] = molecular target: T1, Sodium channel protein type 10 subunit alpha (Homo sapiens, UniProt Q9Y5Y9); assay: Inhibition of Nav1.8 (unknown origin) at 10 uM by Ionflux high-throughput automated patch method
Target sequence in this assay (Q9Y5Y9 whole entry, looked up): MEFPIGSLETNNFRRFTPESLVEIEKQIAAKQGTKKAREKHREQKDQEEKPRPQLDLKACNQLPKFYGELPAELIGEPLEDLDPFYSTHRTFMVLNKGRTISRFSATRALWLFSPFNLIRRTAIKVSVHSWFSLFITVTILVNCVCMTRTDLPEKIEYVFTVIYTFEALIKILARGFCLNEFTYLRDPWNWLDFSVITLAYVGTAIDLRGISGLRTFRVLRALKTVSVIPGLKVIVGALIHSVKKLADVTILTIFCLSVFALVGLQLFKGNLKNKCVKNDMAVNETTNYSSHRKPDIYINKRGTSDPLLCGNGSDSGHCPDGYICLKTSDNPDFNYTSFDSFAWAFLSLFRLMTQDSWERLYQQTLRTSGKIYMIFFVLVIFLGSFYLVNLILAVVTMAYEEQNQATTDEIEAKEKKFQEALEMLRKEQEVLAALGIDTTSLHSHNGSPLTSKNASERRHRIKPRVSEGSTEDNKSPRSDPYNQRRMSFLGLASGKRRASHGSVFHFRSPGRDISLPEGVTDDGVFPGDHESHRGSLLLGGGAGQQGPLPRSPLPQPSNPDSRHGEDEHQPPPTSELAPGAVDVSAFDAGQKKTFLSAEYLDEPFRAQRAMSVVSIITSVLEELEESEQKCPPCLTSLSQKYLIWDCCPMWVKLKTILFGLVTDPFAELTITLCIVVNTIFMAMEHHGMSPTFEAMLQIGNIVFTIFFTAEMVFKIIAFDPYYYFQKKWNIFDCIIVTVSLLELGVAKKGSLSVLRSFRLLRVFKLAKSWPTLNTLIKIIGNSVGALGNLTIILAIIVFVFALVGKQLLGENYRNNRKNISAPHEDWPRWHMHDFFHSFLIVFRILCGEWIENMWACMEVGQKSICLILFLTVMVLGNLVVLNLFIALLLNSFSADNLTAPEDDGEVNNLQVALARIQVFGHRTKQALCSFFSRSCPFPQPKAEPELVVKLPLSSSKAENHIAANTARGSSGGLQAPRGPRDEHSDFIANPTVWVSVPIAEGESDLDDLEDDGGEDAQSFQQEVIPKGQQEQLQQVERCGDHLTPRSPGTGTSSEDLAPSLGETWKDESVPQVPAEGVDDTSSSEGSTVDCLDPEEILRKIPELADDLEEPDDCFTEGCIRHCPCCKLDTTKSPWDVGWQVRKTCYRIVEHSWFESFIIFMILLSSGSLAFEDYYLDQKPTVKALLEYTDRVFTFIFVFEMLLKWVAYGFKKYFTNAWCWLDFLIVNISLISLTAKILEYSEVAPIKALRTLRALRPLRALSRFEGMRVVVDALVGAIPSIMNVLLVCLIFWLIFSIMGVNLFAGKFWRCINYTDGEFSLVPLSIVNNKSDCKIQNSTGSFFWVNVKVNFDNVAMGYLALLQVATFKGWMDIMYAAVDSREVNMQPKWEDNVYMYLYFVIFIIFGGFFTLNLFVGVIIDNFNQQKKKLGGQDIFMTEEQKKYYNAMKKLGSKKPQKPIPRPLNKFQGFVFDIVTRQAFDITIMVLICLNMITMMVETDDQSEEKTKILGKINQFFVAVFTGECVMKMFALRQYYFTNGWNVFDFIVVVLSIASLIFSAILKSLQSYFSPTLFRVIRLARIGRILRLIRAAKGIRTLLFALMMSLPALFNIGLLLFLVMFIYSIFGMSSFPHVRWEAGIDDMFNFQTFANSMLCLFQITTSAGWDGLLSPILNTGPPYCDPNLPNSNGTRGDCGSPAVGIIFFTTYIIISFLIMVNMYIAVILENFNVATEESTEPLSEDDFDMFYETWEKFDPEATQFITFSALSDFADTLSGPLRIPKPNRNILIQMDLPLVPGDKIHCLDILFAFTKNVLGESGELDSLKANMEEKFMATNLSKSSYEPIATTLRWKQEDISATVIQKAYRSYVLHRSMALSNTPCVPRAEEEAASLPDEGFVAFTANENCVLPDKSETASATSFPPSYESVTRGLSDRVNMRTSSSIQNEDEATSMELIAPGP

[7] = Stability in human liver microsomes assessed as parent compound remaining measured after 60 mins; format: ADME, Microsome; details: read-out: Stability
[8] = molecular target: Voltage-gated inwardly rectifying potassium channel KCNH2 (Homo sapiens, UniProt Q12809); assay: Inhibition of human ERG; format: toxicity
[9] = Volume of distribution at steady state in dog at 1 mg/kg, iv; format: ADME, organism-based, Canis lupus familiaris; details: in vivo, read-out: Vdss
[10] = Efflux ratio of apparent permeability in MDCK-MDR1 cells; format: ADME, cell-based, Canis lupus familiaris; details: dog
[11] = molecular target: T1, Sodium channel protein type 10 subunit alpha; assay: Inhibition of human Nav1.8 with resting membrane potential at half inactivated state by PatchXpress high-throughput electrophysiology method
Target sequence in this assay (Q9Y5Y9 whole entry): as the sequence (Q9Y5Y9 whole entry, looked up) above

[12] = Apparent permeability in MDCK-MDR1 cells; format: ADME, cell-based, Canis lupus familiaris; details: dog
Cytochrome P450 2C9 = Cytochrome P450 2C9 (Homo sapiens, UniProt P11712); assay: Inhibition of CYP2C9 (unknown origin) at 2 to 8 uM; format: ADME; details: dose 2-8 µM
Sequence of Cytochrome P450 2C9 (P11712 whole entry): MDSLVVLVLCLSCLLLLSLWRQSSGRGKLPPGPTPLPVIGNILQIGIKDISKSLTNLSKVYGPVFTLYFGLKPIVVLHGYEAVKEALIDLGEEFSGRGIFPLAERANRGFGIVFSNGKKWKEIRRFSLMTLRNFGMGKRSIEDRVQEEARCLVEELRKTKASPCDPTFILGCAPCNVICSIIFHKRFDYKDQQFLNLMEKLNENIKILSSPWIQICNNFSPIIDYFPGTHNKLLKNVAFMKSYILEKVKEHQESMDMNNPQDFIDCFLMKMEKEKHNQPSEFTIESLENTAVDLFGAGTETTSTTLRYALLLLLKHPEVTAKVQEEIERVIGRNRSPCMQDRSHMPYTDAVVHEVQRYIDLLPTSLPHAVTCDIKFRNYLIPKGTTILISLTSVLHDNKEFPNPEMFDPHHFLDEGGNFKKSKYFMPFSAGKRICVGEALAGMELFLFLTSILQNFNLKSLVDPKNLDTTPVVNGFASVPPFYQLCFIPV

[13] = molecular target: Sodium channel protein type 10 subunit alpha (Mus musculus, UniProt Q6QIY3); assay: Inhibition of mouse Nav1.8 with resting membrane potential at half inactivated state by PatchXpress high-throughput electrophysiology method
Sequence of Sodium channel protein type 10 subunit alpha (Mus musculus, UniProt Q6QIY3) (Q6QIY3 whole entry): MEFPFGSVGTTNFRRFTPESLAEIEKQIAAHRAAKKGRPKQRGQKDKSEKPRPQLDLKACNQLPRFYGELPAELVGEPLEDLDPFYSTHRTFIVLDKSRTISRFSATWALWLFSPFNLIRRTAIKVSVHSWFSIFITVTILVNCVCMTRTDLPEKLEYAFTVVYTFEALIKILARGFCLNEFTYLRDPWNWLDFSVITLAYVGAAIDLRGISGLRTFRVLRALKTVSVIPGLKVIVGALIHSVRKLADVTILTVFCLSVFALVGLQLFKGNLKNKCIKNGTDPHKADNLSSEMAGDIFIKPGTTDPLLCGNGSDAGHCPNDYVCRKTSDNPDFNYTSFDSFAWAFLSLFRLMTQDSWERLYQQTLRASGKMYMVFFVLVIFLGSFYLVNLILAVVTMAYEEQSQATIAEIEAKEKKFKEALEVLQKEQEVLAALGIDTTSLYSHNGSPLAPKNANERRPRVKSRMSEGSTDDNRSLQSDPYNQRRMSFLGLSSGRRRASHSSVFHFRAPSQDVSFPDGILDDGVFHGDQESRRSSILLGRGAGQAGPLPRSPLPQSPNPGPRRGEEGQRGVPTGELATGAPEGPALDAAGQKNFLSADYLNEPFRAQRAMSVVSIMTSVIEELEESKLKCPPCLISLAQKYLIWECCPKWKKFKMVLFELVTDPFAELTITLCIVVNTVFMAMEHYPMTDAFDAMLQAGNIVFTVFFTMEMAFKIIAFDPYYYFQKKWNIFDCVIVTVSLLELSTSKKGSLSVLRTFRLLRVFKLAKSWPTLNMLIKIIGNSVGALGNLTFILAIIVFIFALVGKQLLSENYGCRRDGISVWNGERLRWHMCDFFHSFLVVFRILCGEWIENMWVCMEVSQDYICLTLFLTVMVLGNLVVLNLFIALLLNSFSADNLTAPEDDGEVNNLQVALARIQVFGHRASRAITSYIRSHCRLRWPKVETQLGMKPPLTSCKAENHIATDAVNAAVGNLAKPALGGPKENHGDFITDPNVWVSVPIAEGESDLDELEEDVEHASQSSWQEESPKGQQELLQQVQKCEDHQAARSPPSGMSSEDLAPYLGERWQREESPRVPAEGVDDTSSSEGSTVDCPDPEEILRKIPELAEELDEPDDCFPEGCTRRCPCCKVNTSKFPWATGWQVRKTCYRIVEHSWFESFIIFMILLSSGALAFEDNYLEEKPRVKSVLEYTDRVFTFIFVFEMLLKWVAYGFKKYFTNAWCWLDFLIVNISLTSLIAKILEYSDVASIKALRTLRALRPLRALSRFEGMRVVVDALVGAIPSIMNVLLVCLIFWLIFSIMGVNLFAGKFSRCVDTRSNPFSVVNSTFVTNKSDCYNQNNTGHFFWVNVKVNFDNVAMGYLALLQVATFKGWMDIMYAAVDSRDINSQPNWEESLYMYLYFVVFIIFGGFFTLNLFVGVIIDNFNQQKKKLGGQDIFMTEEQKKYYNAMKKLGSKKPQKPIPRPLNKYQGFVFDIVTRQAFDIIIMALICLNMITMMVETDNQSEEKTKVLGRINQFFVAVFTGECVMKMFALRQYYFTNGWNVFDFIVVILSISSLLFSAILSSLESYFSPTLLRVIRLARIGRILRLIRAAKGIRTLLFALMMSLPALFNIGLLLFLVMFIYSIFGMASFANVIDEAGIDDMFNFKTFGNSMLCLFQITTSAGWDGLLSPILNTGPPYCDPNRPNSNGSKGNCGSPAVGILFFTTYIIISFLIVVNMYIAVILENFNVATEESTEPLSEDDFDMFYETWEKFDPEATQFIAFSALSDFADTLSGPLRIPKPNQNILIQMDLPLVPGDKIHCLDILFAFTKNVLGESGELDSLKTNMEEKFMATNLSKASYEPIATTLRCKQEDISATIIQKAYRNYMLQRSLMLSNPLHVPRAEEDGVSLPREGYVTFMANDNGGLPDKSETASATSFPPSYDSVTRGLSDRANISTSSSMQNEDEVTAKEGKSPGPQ

[14] = Clearance in rat at 1 mg/kg; format: ADME, organism-based; details: in vivo
Cytochrome P450 1A2 = molecular target: T2, Cytochrome P450 1A2 (Homo sapiens, UniProt P05177); assay: Inhibition of CYP1A2 (unknown origin); format: ADME
T2 sequence (P05177 whole entry): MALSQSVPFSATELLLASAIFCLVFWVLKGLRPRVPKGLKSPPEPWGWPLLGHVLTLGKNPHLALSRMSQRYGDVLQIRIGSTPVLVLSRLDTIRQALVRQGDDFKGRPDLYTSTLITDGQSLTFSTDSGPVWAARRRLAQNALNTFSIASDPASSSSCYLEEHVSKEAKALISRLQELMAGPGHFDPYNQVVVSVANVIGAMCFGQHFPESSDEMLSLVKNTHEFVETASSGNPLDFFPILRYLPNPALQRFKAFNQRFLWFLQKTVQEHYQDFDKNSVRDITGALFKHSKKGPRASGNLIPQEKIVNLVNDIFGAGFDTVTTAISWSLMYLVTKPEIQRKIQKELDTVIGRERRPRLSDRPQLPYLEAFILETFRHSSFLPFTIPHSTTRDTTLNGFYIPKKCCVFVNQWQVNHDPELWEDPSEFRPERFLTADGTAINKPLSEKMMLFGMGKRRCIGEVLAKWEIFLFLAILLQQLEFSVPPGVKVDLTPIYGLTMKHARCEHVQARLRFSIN

[15] = Protein binding in human plasma assessed as unbound fraction; format: ADME, cell-free
[16] = molecular target: Nav1.6 (sodium channel protein type 8 subunit alpha) (Homo sapiens, UniProt Q9UQD0); assay: Inhibition of Nav1.6 (unknown origin) at 30 uM relative to control; format: toxicity
[17] = molecular target: Nav1.2 (sodium channel protein type 2 subunit alpha) (Homo sapiens, UniProt Q99250); assay: Inhibition of Nav1.2 (unknown origin) at 30 uM relative to control; format: toxicity
[18] = molecular target: T1, Sodium channel protein type 10 subunit alpha; assay: Inhibition of Nav1.8 (unknown origin) over expressed in HEK cells exposed to 1st depolarizing pulse at 10 Hz train of action potential at 35 nM; format: cell-based
Target sequence in this assay (Q9Y5Y9 whole entry, looked up): as the sequence (Q9Y5Y9 whole entry, looked up) above

[19] = molecular target: T1, Sodium channel protein type 10 subunit alpha; assay: Inhibition of Nav1.8 (unknown origin) over expressed in HEK cells exposed to 120th depolarizing pulse at 10 Hz train of action potential at 35 nM; format: cell-based
Target sequence in this assay (Q9Y5Y9 whole entry, looked up): as above

[20] = molecular target: T1, Sodium channel protein type 10 subunit alpha; assay: Inhibition of human Nav1.8 with resting membrane potential by PatchXpress high-throughput electrophysiology method
Target sequence in this assay (Q9Y5Y9 whole entry): as the sequence (Q9Y5Y9 whole entry, looked up) above

[21] = molecular target: Nav1.3 (sodium channel protein type 3 subunit alpha) (Homo sapiens, UniProt Q9NY46); assay: Inhibition of Nav1.3 (unknown origin) at 30 uM relative to control; format: toxicity
[22] = Volume of distribution at steady state in cynomolgus monkey at 1 mg/kg, iv; format: ADME, organism-based, Macaca fascicularis; details: in vivo, read-out: Vdss
[23] = molecular target: Nav1.4 (sodium channel protein type 4 subunit alpha) (Homo sapiens, UniProt P35499); assay: Inhibition of Nav1.4 (unknown origin) at 30 uM relative to control; format: toxicity
[24] = molecular target: Nav1.7 (sodium channel protein type 9 subunit alpha) (Homo sapiens, UniProt Q15858); assay: Inhibition of Nav1.7 (unknown origin) at 30 uM relative to control; format: toxicity
[25] = molecular target: Nav1.1 (sodium channel protein type 1 subunit alpha) (Homo sapiens, UniProt P35498); assay: Inhibition of Nav1.1 (unknown origin) at 30 uM relative to control; format: toxicity
[26] = Inhibition of Nav1.5 (domain 1 and 2)-Nav 1.8 (domain 3 and 4) chimera (unknown origin) with resting membrane potential at half inactivated state by PatchXpress high-throughput electrophysiology method; design: species or system Homo sapiens
[27] = Clearance in cynomolgus monkey at 1 mg/kg; format: ADME, organism-based, Macaca fascicularis; details: in vivo
[28] = Ratio of drug level in rat brain to plasma at 1 mg/kg, iv measured after 60 mins; format: ADME, organism-based; details: read-out: BPR
[29] = Oral bioavailability in cynomolgus monkey at 10 mg/kg; format: ADME, organism-based, Macaca fascicularis; details: in vivo
[30] = Inhibition of Nav1.8 (domain 1 and 2)-Nav 1.5 (domain 3 and 4) chimera (unknown origin) with resting membrane potential at half inactivated state by PatchXpress high-throughput electrophysiology method; design: species or system Homo sapiens
[31] = molecular target: Nav1.5 (sodium channel protein type 5 subunit alpha) (Homo sapiens, UniProt Q14524); assay: Inhibition of Nav1.5 (unknown origin) at 30 uM relative to control; format: toxicity

For `COc1cc(F)ccc1Oc1cc(C(F)(F)F)ncc1C(=O)Nc1ccnnc1`, the bioavailability [1] was 45%, the clearance [2] was 11 mL/min/kg and the Vd [3] was 1 L/kg. For the same compound, the solubility kinetic at 2 h [4] was 95 µg/mL (≈ 233 µM), the bioavailability [5] was 100% and the INH (Cytochrome P450 3A4) was greater than 30 µM. For the same compound, the inhibition [6] was “Active”, the remaining at 1 h [7] was 95% and the IC50 [8] was greater than 30000 nM. It also gave a Vd [9] of 3.4 L/kg, an efflux ratio [10] of 0.7 and an IC50 [11] of 71 nM. The Papp [12] was 63 ×10⁻⁶ cm/s, the “inhibition (INH)” value (Cytochrome P450 2C9) was “Moderate_effect” and the IC50 [13] was 3100 nM. For the same compound, the clearance [14] was 24 mL/min/kg, the INH (Cytochrome P450 1A2) was 4 µM and the fraction unbound [15] was 0.15.

For `Cc1cc(F)ccc1Oc1ncc(C(F)(F)F)cc1C(=O)Nc1cccc([S@](C)(=N)=O)c1`, the bioavailability [1] was 80%, the inhibition at 30 µM [16] was less than 25% and the inhibition at 30 µM [17] was less than 25%. For the same compound, the inhibition [18] was 33.8%, the clearance [2] was 1.7 mL/min/kg and the inhibition [19] was 35.5%. The IC50 [20] was 53 nM, the Vd [3] was 1.8 L/kg and the solubility kinetic at 2 h [4] was 65 µg/mL (≈ 139 µM). It also gave a bioavailability [5] of 39%, an INH (Cytochrome P450 3A4) greater than 30 µM and an inhibition at 30 µM [21] of less than 25%. For the same compound, the inhibition [6] was “Active”, the Vd [22] was 1.9 L/kg and the inhibition at 30 µM [23] was less than 25%. The remaining at 1 h [7] was greater than 95%, the IC50 [8] was greater than 30000 nM and the inhibition at 30 µM [24] was less than 25%. The inhibition at 30 µM [25] was less than 25%, the Vd [9] was 1.2 L/kg and the efflux ratio [10] was 0.8. It also gave an IC50 [11] of 35 nM, an IC50 [26] greater than 30000 nM and a clearance [27] of 7.7 mL/min/kg. The Papp [12] was 18.1 ×10⁻⁶ cm/s, the IC50 [13] was 3040 nM and the Kp at 1 h [28] was 0.6. For the same compound, the bioavailability [29] was 61%, the clearance [14] was 6.1 mL/min/kg and the INH (Cytochrome P450 1A2) was greater than 30 µM. For the same compound, the IC50 [30] was 40 nM, the inhibition at 30 µM [31] was less than 25% and the fraction unbound [15] was 0.14.
